From patent US20190093170A1, “USE OF TRANSLATIONAL PROFILING TO IDENTIFY TARGET MOLECULES FOR THERAPEUTIC TREATMENT” (THE REGENTS OF THE UNIVERSITY OF CALIFORNIA, priority 2013, published 2019)

Legend:
[1] = test system: PC3 human prostate cancer cells; experiment: Ribosome profiling: translational efficiency (ribosome footprint vs RNA-seq read density); format: cell-based; conditions: for PP242 TrlEff: 3-hour treatment with PP242 (2.5 μM) in PC3 cells;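 on all read-outs here: Per-gene footprint-to-mRNA density ratio averaged per codon over the coding sequence, scaled so the median gene equals 1.0 after excluding regulated genes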
Procedure: Given the critical role for mTOR in prostate cancer, PC3 human prostate cancer cells, in which mTOR is constitutively hyperactivated, were used to delineate translationally controlled gene expression networks upon complete or partial mTOR inhibition. Ribosome profiling was optimized to assess quantitatively ribosome occupancy genome-wide in cancer cells.
Cells were subsequently treated with cycloheximide (100 μg ml^−1; Sigma) and detergent lysis was performed in the dish. The lysate was treated with DNase and clarified, and a sample was taken for RNA-seq analysis. Lysates were subjected to ribosome footprinting by nuclease treatment. Ribosome-protected fragments were purified, and deep sequencing libraries were generated from these fragments, as well as from poly(A) mRNA purified from non-nuclease-treated lysates. These libraries were analyzed by sequencing on an Illumina GAII.
Ribosome footprint and RNA-seq sequencing reads were aligned against a library of transcripts from the UCSC Known Genes database GRCh37/hg19. The first 25 nucleotides of each read were aligned using Bowtie and this initial alignment was then extended to encompass the full fragment-derived portion of the sequencing read while excluding the linker sequence. Read density profiles were then constructed for the canonical transcript of each gene, using only reads with 0 or 1 total mismatches between the read sequence and the reference sequence, comprised of the transcript fragment followed by the linker sequence. Footprint reads were assigned to an A site nucleotide at position +15 to +17 of the alignment, based on the total fragment length; mRNA reads were assigned to the first nucleotide of the alignment. The average read density per codon was then computed for the coding sequence of each transcript, excluding the first 15 and last 5 codons, which can display atypical ribosome accumulation.
Average read density was used as a measure of mRNA abundance (RNA-seq reads) and of protein synthesis (ribosome profiling reads). For most analyses, genes were filtered to require at least 256 reads in the relevant RNA-seq samples. Translational efficiency was computed as the ratio of ribosome footprint read density to RNA-seq read density, scaled to normalize the translational efficiency of the median gene to 1.0 after excluding regulated genes (log 2 fold-change+1.5 after normalizing for the all-gene median). Changes in protein synthesis, mRNA abundance and translational efficiency were similarly computed as the ratio of read densities between different samples, normalized to give the median gene a ratio of 1.0. This normalization corrects for differences in the absolute number of sequencing reads obtained for different libraries.

[2] = test system: YB1, MTA1, vimentin, and CD44; experiment: Western blot and qPCR of invasion genes in PC3 cells; format: cell-based, human; conditions: starting at 6 hr of treatment
Procedure: Western blot analysis was performed as previously described (Hsieh et al., Cancer Cell 17:249-261 (2010)) with antibodies specific to phospho-AKT^S473 (Cell Signaling), AKT (Cell Signaling), phospho-p70S6K^T389 (Cell Signaling), phospho-rpS6^S240/244 (Cell Signaling), rpS6 (Cell Signaling), phospho-4EBP1^T37/46 (Cell Signaling), 4EBP1 (Cell Signaling), 4EBP2 (Cell Signaling), YB1 (Cell Signaling), CD44 (Cell Signaling), LEF1 (Cell Signaling), PTEN (Cell Signaling), eEF2 (Cell Signaling), GAPDH (Cell Signaling), vimentin (BD Biosciences), eIF4E (BD Biosciences), Flag (Sigma), β-actin (Sigma), MTA1 (Santa Cruz Biotechnology), Twist (Santa Cruz Biotechnology), rpL28 (Santa Cruz Biotechnology), HA (Covance) and rictor (Bethyl Laboratory).
RNA was isolated using the manufacturer's protocol for RNA extraction with TRIzol Reagent (Invitrogen) using the Pure Link RNA mini kit (Invitrogen). RNA was DNase-treated with Pure Link Dnase (Invitrogen). DNase-treated RNA was transcribed to cDNA with SuperScript III First-Strand Synthesis System for RT-PCR (Invitrogen), and 1 μl of cDNA was used to run a SYBR green detection qPCR assay (SYBR Green Supermix and MyiQ2, Biorad). Primers were used at 200 nM.

In the case of `CC(C)n1nc(-c2cc3cc(O)ccc3[nH]2)c2c(N)ncnc21` [PP242], the “PP242 TrlEff” value ([1]; gene ACD) is reported as −1.02, the TrlEff ([1]; gene ACTG1) is reported as −1.40 and the TrlEff ([1]; gene AGRN) is reported as −1.29. For the same compound, the TrlEff ([1]; gene ALKBH7) was −1.27, the TrlEff ([1]; gene AP2A1) was −1.32 and the TrlEff ([1]; gene ARD1A) was −1.05. The TrlEff ([1]; gene ATP5G2) was −1.01, the “PP242 TrlEff” value ([1]; gene C17orf28) was −0.20 and the TrlEff ([1]; gene C21orf66) was −1.03. For the same compound, the “PP242 TrlEff” value ([1]; gene CCNA1) was 0.66, the TrlEff ([1]; gene CCNI) was −1.33 and the TrlEff ([1]; gene CD44) was −1.29. The TrlEff ([1]; gene CIRBP) was −1.08, the TrlEff ([1]; gene CLPTM1) was −1.13 and the TrlEff ([1]; gene COL6A2) was −1.29. For the same compound, the TrlEff ([1]; gene CRTAP) was −2.50, the “PP242 TrlEff” value ([1]; gene DDX51) was −0.51 and the “PP242 TrlEff” value ([1]; gene DGCR2) was 0.02. The TrlEff ([1]; gene ECSIT) was −1.06, the “PP242 TrlEff” value ([1]; gene EEF1A1) was −3.53 and the TrlEff ([1]; gene EEF1A2) was −1.94. For the same compound, the TrlEff ([1]; gene EEF1D) was −2.37, the TrlEff ([1]; gene EEF1G) was −2.26 and the TrlEff ([1]; gene EEF2) was −3.60. The TrlEff ([1]; gene EIF3H) was −1.54, the TrlEff ([1]; gene EIF3L) was −1.47 and the TrlEff ([1]; gene EIF4B) was −2.27. For the same compound, the TrlEff ([1]; gene EVPL) was −0.79, the TrlEff ([1]; gene FAM83H) was −1.11 and the TrlEff ([1]; gene FAM128B) was −1.47. For the same compound, the TrlEff ([1]; gene FASN) was −1.42, the TrlEff ([1]; gene GLTSCR2) was −2.12 and the TrlEff ([1]; gene GNB2L1) was −2.35. For the same compound, the “PP242 TrlEff” value ([1]; gene GTPBP3) was −0.83, the TrlEff ([1]; gene HNRNPA1) was −2.12 and the TrlEff ([1]; gene HSPA8) was −2.25. The TrlEff ([1]; gene IMPDH2) was −1.33, the TrlEff ([1]; gene LAMA5) was −0.94 and the TrlEff ([1]; gene LMF2) was −1.36. For the same compound, the “PP242 TrlEff” value ([1]; gene MAPK6) was −0.29, the “PP242 TrlEff” value ([1]; gene MAPKAPK2) was 0.92 and the TrlEff ([1]; gene MTA1) was −1.09. For the same compound, the TrlEff ([1]; gene NCLN) was −0.76, the “PP242 TrlEff” value ([1]; gene NFATC21P) was 0.35 and the “PP242 TrlEff” value ([1]; gene NR2F1) was −0.09. The TrlEff ([1]; gene PABPC1) was −2.09, the TrlEff ([1]; gene PABPC4) was −1.98 and the TrlEff ([1]; gene PACS1) was −1.09. The TrlEff ([1]; gene PFDN5) was −1.38, the TrlEff ([1]; gene PGLS) was −1.11 and the TrlEff ([1]; gene PGM1) was −1.35. For the same compound, the TrlEff ([1]; gene PNKP) was −0.79, the “PP242 TrlEff” value ([1]; gene PRKD3) was 0.68 and the TrlEff ([1]; gene PTGES2) was −0.65. For the same compound, the TrlEff ([1]; gene RABGGTB) was −1.46, the “PP242 TrlEff” value ([1]; gene RBPJ) was −0.03 and the TrlEff ([1]; gene RPL3) was −2.44. For the same compound, the TrlEff ([1]; gene RPL4) was −1.50, the TrlEff ([1]; gene RPL7) was −2.02 and the TrlEff ([1]; gene RPL7A) was −2.30. For the same compound, the TrlEff ([1]; gene RPL9) was −1.59, the TrlEff ([1]; gene RPL10) was −2.46 and the TrlEff ([1]; gene RPL10A) was −2.16. The TrlEff ([1]; gene RPL11) was −2.31, the TrlEff ([1]; gene RPL12) was −2.95 and the TrlEff ([1]; gene RPL13) was −1.56. For the same compound, the TrlEff ([1]; gene RPL13A) was −3.10, the TrlEff ([1]; gene RPL15) was −1.20 and the TrlEff ([1]; gene RPL18A) was −2.63. It also gave a TrlEff ([1]; gene RPL19) of −1.35, a TrlEff ([1]; gene RPL21) of −2.45 and a TrlEff ([1]; gene RPL22) of −1.64. For the same compound, the TrlEff ([1]; gene RPL24) was −1.41, the TrlEff ([1]; gene RPL26) was −2.00 and the TrlEff ([1]; gene RPL27) was −1.23. The TrlEff ([1]; gene RPL27A) was −2.53, the TrlEff ([1]; gene RPL28) was −2.54 and the “PP242 TrlEff” value ([1]; gene RPL28) was −3.48. The TrlEff ([1]; gene RPL31) was −2.10, the TrlEff ([1]; gene RPL32) was −2.33 and the TrlEff ([1]; gene RPL34) was −2.63. The TrlEff ([1]; gene RPL36A) was −1.98, the TrlEff ([1]; gene RPL37A) was −2.38 and the TrlEff ([1]; gene RPL39) was −2.41. The “PP242 TrlEff” value ([1]; gene RPL39) was −2.53, the TrlEff ([1]; gene RPL41) was −1.28 and the TrlEff ([1]; gene RPLP0) was −1.61. For the same compound, the TrlEff ([1]; gene RPLP1) was −2.06, the TrlEff ([1]; gene RPLP2) was −2.10 and the TrlEff ([1]; gene RPS2) was −2.25. It also gave a TrlEff ([1]; gene RPS3) of −2.16, a TrlEff ([1]; gene RPS3A) of −2.17 and a TrlEff ([1]; gene RPS4X) of −2.06. For the same compound, the TrlEff ([1]; gene RPS5) was −2.25, the TrlEff ([1]; gene RPS7) was −1151 and the TrlEff ([1]; gene RPS9) was −2.27. For the same compound, the TrlEff ([1]; gene RPS12) was −3.00, the TrlEff ([1]; gene RPS13) was −1.54 and the TrlEff ([1]; gene RPS14) was −1.50. The TrlEff ([1]; gene RPS15) was −1.19, the TrlEff ([1]; gene RPS15A) was −2.31 and the TrlEff ([1]; gene RPS19) was −2.34. The TrlEff ([1]; gene RPS20) was −2.46, the “PP242 TrlEff” value ([1]; gene RPS20) was −2.78 and the TrlEff ([1]; gene RPS21) was −2.09. For the same compound, the TrlEff ([1]; gene RPS25) was −2.13, the TrlEff ([1]; gene RPS27) was −2.71 and the “PP242 TrlEff” value ([1]; gene RPS27) was −3.35. The TrlEff ([1]; gene RPS27A) was −1.61, the TrlEff ([1]; gene RPS28) was −2.67 and the “PP242 TrlEff” value ([1]; gene SDCCAG10) was 0.23. For the same compound, the TrlEff ([1]; gene SLC19A1) was −1.07, the TrlEff ([1]; gene TKT) was −1.58 and the TrlEff ([1]; gene TPT1) was −1.94. For the same compound, the TrlEff ([1]; gene TSC2) was −1.09, the TrlEff ([1]; gene UBA52) was −1.62 and the “PP242 TrlEff” value ([1]; gene UBTD2) was 0.27. The “PP242 TrlEff” value ([1]; gene UCHL5) was 0.40, the “PP242 TrlEff” value ([1]; gene VHL) was 0.52 and the TrlEff ([1]; gene VIM) was −2.38. For the same compound, the TrlEff ([1]; gene YB1) was −2.30 and the “expression of YB1, MTA1, vimentin, and CD44 at the protein but not transcript level” value [2] was “selective decrease”.
